# Entries after “also recorded” stand apart in the source; their conditions may differ.
# What was measured:
# [1] = system: LC3; test: pHfluorin-LC3 autophagy assay in Neuro2a clone 7B11; format: cell-based, mouse; conditions: 48 hours
# Description: Besides increasing the functionality of lysosomes we hypothesised that compound 2a could also enhance the autophagy system. Therefore we used a pHfluorin-LC3-based assay to monitor the autophagy process in living Neuro2a cells. We have established in our laboratory a Neuro2a stable cell clone (7B11) that expresses the Microtubule-associated protein 1A/1B-light chain 3 (LC3) coupled with the ph-sensitive GFP/phlourin.
# Neuro2a-7B11 cells were incubated with increasing concentrations of compound 2a (0.1-100 μM) as well as with the control molecules Bafilomycin Al and Torin-1. After 48 hours the GFP/phluorin signal, which is ph-sensitive, was measured by flow cytometry and fold changes calculated over untreated cells.
# Autophagy assay were done using a stable Neuro2a cell clone expressing the pHluorin-mKate2-tagged human LC3 plasmids, Cell clones were generated according our published methods (Mazzocchi 2016). Upon transfection, cells were selected by 400 μg/mL G418 Disulfate Salt Solution (Sigma-Aldrich, St. Louis, Mo.) and further cloned by limiting dilution. […] Neuro2a 7B11 cells were treated with Compound 2a (0.1-100 μM) for 48 hours then MFI levels of the pHfluorin were measured in living cells by flow cytometry.
# [2] = system: G93A aggregates (SOD1); test: Blue-native gel electrophoresis of SOD1 aggregates in G93A mice; format: in vivo, mouse; conditions: 10 mg/kg daily, day 83 to day 103
# Description: SOD1 mutations increase the propensity of this protein to aggregate in cells (Johnston 2000). We checked whether compound 2a could reduce the accumulation of G93A aggregates in vivo. Starting at post-natal day 83, we injected G93A mice and WT littermates daily with compound 2a (10 mg/kg). We scored motor performances in both vehicle- and compound 2a-treated G93A mice until day 103. […] At day 103, we resolved SC protein extracts by blue-native polyacrylamide gel electrophoresis, and probing these gels with anti-SOD1 antibodies we observed high molecular weight smears in G93A mice that were completely absent in WT litters. The intensity of these high molecular weight entities was lowered in mice treated with lead 2a (FIG. 14B, C). Altogether, retromer stabilization by compound 2a increases lysosomal homeostasis in vitro and in vivo, decreases poly ubiquitination of proteins, and therefore diminishes levels of G93A aggregation.
# G93A mice and their WT litters were injected daily with vehicle or compound 2a (10 mg/kg, from day 83 to day 103). Lumbar spinal cords dissected from saline perfused mice were lysed in Tris-HCl 10 mM pH 8, EDTA 1 mM pH 8, NaCl 100 mM, NP40 1% and protease inhibitor cocktail (Sigma). Extracts were obtained using a tight-fitting glass Potter tissue grinder (1 ml; Wheaton). We incubated 250 μl of each extract with 100 mM Iodoacetamide (Sigma). […]
# [3] = system: TNFα; test: LPS-mediated TNFα release in Raw 264.7 cells (ELISA); format: cell-based, murine; conditions: 10 μM for 1 hour, then LPS 100 ng/ml, 4 hours
# Excerpt: We observed that the molecular structure featuring compound 2a is reminiscent of the patented compound CNI-1493 (N,N′-bis [3,5 -bis [1(aminoiminomethyl) hydrazono]ethyl]phenyl]decanediamide tetrahydrochloride (CAS Reg. No. 164301-51-3)), (FIG. 16A). CNI-1493 inhibits macrophage activation in the animal model of Multiple Sclerosis producing a general amelioration of clinical and pathological outcomes of these mice (Martiney, Rajan et al. 1998). […] CNI-1493 suppresses the production of pro-inflammatory cytokines, belonging to the plethora of detrimental signals that accompany neurodegenerative processes in several disorders. […] We followed experimental procedures published by Bianchi and colleagues that describe the ability of CNI-1493 to blunt the production of this cytokine (Bianchi, Bloom et al. 1996). Cells were incubated with CNI-1493 (10 μM) or with compound 2a (10 μM) for 1 hour and then we added the LPS (100 ng/ml) to media. We next collected supernatants (4 hours after the LPS stimulation) form cells for the evaluation of TNFα levels.
# Raw 264.7 cells (10^5/well) were treated with compound 2a, CNI-1493 or vehicle for 1 hour then we applied LPS (100 ng/ml) and supernatants were collected after 4 hours. […] Concentrations of TNFα were calculated according to a standard curve and expressed as nanograms per […]. […]
smiles,measurement,setting,value
"N=C(N)NN=Cc1cccc(C=NNC(=N)N)c1 [Compound 2a, 1,3-Bis-amino guanidine phenyl hydrazone]",GFP/phluorin signals (fold changes over untreated cells),[1]; 0.1 and 1μM,did not change
same,GFP/phluorin fluorescence levels (fold changes over untreated cells),[1]; 10 and 100 μM,significant reduction of fluorescence levels
same,intensity of high molecular weight SOD1 entities,[2],lowered
same,TNFα levels in supernatants,[3],did not show any reduction of TNFα; also recorded: did not inhibit TNFα release

# Reference: US20220213030A1, “AMINOGUANIDINE HYDRAZONES AS RETROMER STABILIZERS USEFUL FOR TREATING NEUROLOGICAL DISEASES” (OSPEDALE SAN RAFFAELE SRL, priority 2019, published 2022)
